{
  "source": "patent US20220079889A1",
  "about": "“USE OF CANNABANOIDS IN THE TREATMENT OF PROLIFERATIVE DIABETIC RETINOPATHY” (VERDANT PHARMACEUTICALS, LLC, priority 2020, published 2022)",
  "key": {"[1]": {"system": "IL-1β-induced corneal angiogenesis", "test": "IL-1β-induced corneal angiogenesis", "assay_type": "in vivo, BALB/c mice", "conditions": "0.3 mg/kg daily i.p.; compared with untreated controls", "procedure": "BALB/c mice were anesthetized by intraperitoneal (i.p.) injection of pentobarbital sodium (60 mg/kg). Hydron pellets (0.3 μl) containing 30 ng mouse IL-1β (401-ML, R&D Systems) were prepared and implanted into the corneas. Pellets were positioned 1 mm from the corneal limbus. Implanted eyes were treated with Bacitracin ophthalmic ointment (E. Fougera & Co.) to prevent infection. To block CB, mice received daily i.p. injections of a specific CBD. Compound II (R-tech Ueno Ltd., Tokyo, Japan) as described above. A daily dose of 0.3 mg/kg was administered at day 0 and continued until the sixth day after implantation. Two, four and six days after implantation, digital images of the corneal vessels were obtained and recorded using OpenLab software version 2.2.5 (Improvision Inc.) with standardized illumination and contrast and were saved onto disks. The quantitative analysis of new vessel growth in the mouse corneas was performed using Scion Image software (version 4.0.2, Scion Corp.)."}, "MAO-3": {"target": "T1, MAO-3 (Homo sapiens, UniProt P27338)", "T1 sequence (P27338 1-520)": "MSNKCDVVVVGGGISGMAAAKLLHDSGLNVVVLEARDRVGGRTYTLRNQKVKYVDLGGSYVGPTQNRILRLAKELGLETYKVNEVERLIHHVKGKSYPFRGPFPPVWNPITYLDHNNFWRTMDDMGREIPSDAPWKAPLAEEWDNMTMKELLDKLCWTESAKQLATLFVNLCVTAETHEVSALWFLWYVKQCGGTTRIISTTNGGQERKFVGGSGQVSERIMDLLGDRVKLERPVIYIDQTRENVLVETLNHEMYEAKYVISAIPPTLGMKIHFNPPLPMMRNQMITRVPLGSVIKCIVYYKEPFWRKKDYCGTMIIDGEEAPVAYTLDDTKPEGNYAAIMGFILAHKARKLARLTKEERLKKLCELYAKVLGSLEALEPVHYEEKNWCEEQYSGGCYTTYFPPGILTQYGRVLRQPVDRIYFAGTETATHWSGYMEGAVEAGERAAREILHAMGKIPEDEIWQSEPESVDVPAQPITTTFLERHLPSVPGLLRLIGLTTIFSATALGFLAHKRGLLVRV", "conditions": "functionally related monoamine oxidase; read-out: IC50 against MAO-3; cited from earlier work"}, "MCP-1": {"system": "MCP-1", "test": "ELISA of RPE-choroid complex after laser injury: MCP-1", "assay_type": "in vivo, rat", "conditions": "laser-treated animals, 3 days after laser injury; 0.3 mg/kg BW daily i.p.", "procedure": "(§1) To block CB, a specific CBD, Compound 11 described above, was used (R-tech Ueno, Ltd., Tokyo, Japan). After laser injury, the inhibitor (0.3 mg/kg BW) was administered to the animals by daily i.p. injections. As a control, some animals received the same regimen for the vehicle solution alone.\n(§2) The RPE-choroid complex was carefully isolated from eyes 3 days after photocoagulation and placed in 300 μl of lysis buffer supplemented with protease inhibitors and sonicated. The lysate was centrifuged at 15,000 rpm for 15 minutes at 4° C. and the levels of TNF-α, monocyte chemotactic protein (MCP)-1, and intercellular adhesion molecule (ICAM)-1 were determined with rat TNF-α (BI) bioscience), MCP-1 (BD bioscience) and ICAM-1 (R&D Systems, Minneapolis, Minn.) enzyme-linked immunosorbent assay (ELISA) kits according to the manufacturers' protocols. Total protein concentration was determined using a Bio-Rad Protein Assay Kit (Bio-Rad Laboratories Hercules, Calif.) and dilutions of bovine serum albumin (Bio-Rad Laboratories) as standards."}, "ICAM-1": {"system": "ICAM-1", "test": "ELISA of RPE-choroid complex after laser injury: ICAM-1", "assay_type": "in vivo, rat", "conditions": "laser-treated animals, 3 days after laser injury; 0.3 mg/kg BW daily i.p.", "procedure": "as §1, §2"}},
  "data": [
    {"smiles": "CC(=O)Nc1nc(CCc2ccc(NC(=N)NN)cc2)c(Cc2ccc(S(C)(=O)=O)cc2)s1", "note": "[Compound II]", "values": [
      {"measurement": "effect on corneal angiogenesis (in words)", "setting": "[1]", "value": "effectively suppresses corneal angiogenesis"},
      {"measurement": "IC50", "setting": "MAO-3", "value": "> 10", "unit": "µM"},
      {"measurement": "protein level of MCP-1 in the RPE-choroid complex", "setting": "MCP-1", "value": "662 ± 52", "unit": "pg/mg"},
      {"measurement": "protein level of ICAM-1 in the RPE-choroid complex", "setting": "ICAM-1", "value": "57 ± 2", "unit": "ng/mg"}
    ]}
  ]
}
